Assay results: US20240335462A1, “SULFUR/PHOSPHORUS-CONTAINING ARYL COMPOUND AND APPLICATION THEREOF” (MEDSHINE DISCOVERY INC., priority 2021, published 2024)
Structures can show the parent of a compound that is named as a salt.

Columns and labels:
[1] = biological target: TYK2 JH2 pseudokinase (Homo sapiens, UniProt P29597); experiment: Inhibitory activity on TYK2 JH2 pseudokinase (TR-FRET); format: binding; conditions: 60 min room temperature, read-out: Kinase half maximal inhibitory concentration IC50 TYK2 JH2
Procedure: In this experiment, the inhibitory effect of compounds on TYK2 JH2 pseudokinase was tested using the method of time-resolved fluorescence resonance energy transfer (TR-FRET). In the experiment, TYK2 JH2 or JAK1 JH2 pseudokinase can simultaneously bind to fluorescently labeled Tracer and Tb antibody to form a “sandwich structure”. Tb antibody, functioning as a fluorescent donor, produces fluorescence at a wavelength of 495 nm under the excitation of light at a specific wavelength. Tracer, functioning as a fluorescent acceptor, can receive fluorescence at a wavelength of 495 nm and thus produce fluorescence at a wavelength of 520 nm, i.e., a time-resolved fluorescence resonance energy transfer (TR-FRET) signal, only when it is within the “sandwich structure”, i.e., when it is sufficiently close to Tb antibody. When the compound is added to compete with Tracer for binding to the pseudokinase, the binding of Tracer decreases, leading to a weakened TR-FRET signal. The inhibitory activity of the compound binding to the pseudokinase can be reflected by the ratio of signal values at 520 nm/495 nm.
The working solution consists of the following components: HEPES (pH 7.5) at a final concentration of 20 mM; MgCl2 at a final concentration of 10 mM; Brij-35 at a final concentration of 0.015%; DTT at a final concentration of 2 mM; and BSA at a final concentration of 50 μg/mL.
• a) The compound was dissolved in DMSO to achieve a storage concentration of 10 mM. • b) Various concentrations of the compound, 200 times the final concentration, were prepared in a compound dilution plate and transferred to an Echo plate. • c) The Echo instrument was used to transfer 150 nL of the compound from the Echo plate to a 384-well experimental plate. • d) 5 μL of TYK2 JH2 kinase, at three times the final concentration, was added to the 384-well experimental plate. • e) 5 μL of Tb, at three times the final concentration, was added to the 384-well experimental plate. • f) 5 μL of Tracer, at three times the final concentration, was added to the 384-well experimental plate. • g) The plate was centrifuged for 30 seconds and then incubated at room temperature for 60 minutes. • h) The fluorescence signal values at 520 nm/495 nm were measured using an Envision plate reader (PerkinElmer).
Data analysis was performed using the XL-Fit software to determine the IC50 of the compounds.

[2] = biological target: Ba/F3-FL-TYK2-E957D cells (Homo sapiens, UniProt P29597, E957D, cells depend on it); experiment: Proliferation of Ba/F3-FL-TYK2-E957D cells (CellTiter-Glo); format: cell-based, mouse; conditions: 72 hours, read-out: Half maximal inhibitory concentration IC50 for cells Ba/F3-FL-TYK2-E957D
Source text: Adenosine triphosphate (ATP) serves as a universal energy carrier in various life processes, representing the smallest unit of energy storage and transfer. The CellTiter-Glo™ Luminescent Cell Viability Assay Kit utilizes luciferase as a detection agent. During the luminescent process, luciferase requires the participation of ATP. By adding CellTiter-Glo™ reagent to the cell culture medium and measuring the luminescence, the light signal was directly proportional to the amount of ATP in the system, and ATP was positively correlated with the number of viable cells. Therefore, cell proliferation can be detected by measuring ATP content using the CellTiter-Glo kit. In this test, the cell lines used were Ba/F3-FL-TYK2-E957D and Ba/F3-TEL-TYK2. Ba/F3-FL-TYK2-E957D cells can stably express the exogenously introduced human TYK2-E957D gene, and the TYK2-E957D gene sequence contains both JH1 and JH2 domains. On the other hand, Ba/F3-TEL-TYK2 cells can stably express the exogenously introduced human TEL-TYK2 gene, and the TEL-TYK2 gene sequence contains only the JH1 domain of TYK2.
The cell lines were cultured in an incubator at 37° C. with 5% CO2. Regular passaging was performed, and cells in the logarithmic growth phase were selected for plating.
• a) The test compounds were prepared into a 10 mM solution with DMSO, and then diluted to 0.3 or 1 mM with DMSO. • b) Preparation of 1000× compound storage plate (tube): The compounds were 3-fold serially diluted from the highest concentration to the lowest concentration, creating 9 different concentrations. • c) Preparation of 20× compound working solution: 49 μL of cell culture medium was added to a flat-bottomed 96-well transparent drug plate. From the 1000× compound storage plate, 1 μL of the compound was pipetted into the cell culture medium in the 96-well transparent drug plate. In the solvent control, 1 μL of DMSO was added. After the compound or DMSO was added, the mixture was homogenized using a multi-channel pipette.
• a) Cells were stained with trypan blue and viable cells were counted to ensure a cell viability of 90% or more. • b) 95 μL of cell suspension (2000 cells/well) was added to each well of the compound assay cell plate, and cell-free culture medium containing 0.1% DMSO was added to the Min control wells. • c) Administration in the compound assay cell plate: 5 μL of 20× compound working solution was added to the cell culture plate. 5 μL of DMSO-cell culture medium mixture was added to the Max control wells. The final concentration of DMSO was 0.1%. • d) The culture plate was then incubated in an incubator at 37° C. with 5% CO2 for 72 hours.
The following steps were conducted in accordance with the instructions of the Promega CellTiter-Glo Luminescent Cell Viability Assay Kit (Promega-G7573). • a) CellTiter-Glo buffer was thawed and brought to room temperature. • b) CellTiter-Glo substrate was also brought to room temperature. • c) CellTiter-Glo buffer was added to a bottle of CellTiter-Glo substrate to dissolve the substrate, thereby preparing CellTiter-Glo working solution. • d) The mixture was slowly vortexed and shaken to be fully dissolved. • e) The cell culture plate was removed and allowed to equilibrate to room temperature for 10 minutes. • f) 50 μL (equal to half the volume of cell culture medium in each well) of CellTiter-Glo working solution was added to each well. • g) The culture plate was shaken on an orbital shaker for 2 minutes to induce cell lysis. • h) The plate was then left at room temperature for 10 minutes to stabilize the luminescent signal. • i) The luminescent signal was detected using a SpectraMax Paradigm plate reader.
Data analysis was conducted using GraphPad Prism 5.0 software. Nonlinear S-curve regression was employed to fit the data and generate dose-response curves. From these curves, the IC50 values were calculated.

Ba/F3-FL-TYK2-E957D cells, sequence (P29597 whole entry E957D): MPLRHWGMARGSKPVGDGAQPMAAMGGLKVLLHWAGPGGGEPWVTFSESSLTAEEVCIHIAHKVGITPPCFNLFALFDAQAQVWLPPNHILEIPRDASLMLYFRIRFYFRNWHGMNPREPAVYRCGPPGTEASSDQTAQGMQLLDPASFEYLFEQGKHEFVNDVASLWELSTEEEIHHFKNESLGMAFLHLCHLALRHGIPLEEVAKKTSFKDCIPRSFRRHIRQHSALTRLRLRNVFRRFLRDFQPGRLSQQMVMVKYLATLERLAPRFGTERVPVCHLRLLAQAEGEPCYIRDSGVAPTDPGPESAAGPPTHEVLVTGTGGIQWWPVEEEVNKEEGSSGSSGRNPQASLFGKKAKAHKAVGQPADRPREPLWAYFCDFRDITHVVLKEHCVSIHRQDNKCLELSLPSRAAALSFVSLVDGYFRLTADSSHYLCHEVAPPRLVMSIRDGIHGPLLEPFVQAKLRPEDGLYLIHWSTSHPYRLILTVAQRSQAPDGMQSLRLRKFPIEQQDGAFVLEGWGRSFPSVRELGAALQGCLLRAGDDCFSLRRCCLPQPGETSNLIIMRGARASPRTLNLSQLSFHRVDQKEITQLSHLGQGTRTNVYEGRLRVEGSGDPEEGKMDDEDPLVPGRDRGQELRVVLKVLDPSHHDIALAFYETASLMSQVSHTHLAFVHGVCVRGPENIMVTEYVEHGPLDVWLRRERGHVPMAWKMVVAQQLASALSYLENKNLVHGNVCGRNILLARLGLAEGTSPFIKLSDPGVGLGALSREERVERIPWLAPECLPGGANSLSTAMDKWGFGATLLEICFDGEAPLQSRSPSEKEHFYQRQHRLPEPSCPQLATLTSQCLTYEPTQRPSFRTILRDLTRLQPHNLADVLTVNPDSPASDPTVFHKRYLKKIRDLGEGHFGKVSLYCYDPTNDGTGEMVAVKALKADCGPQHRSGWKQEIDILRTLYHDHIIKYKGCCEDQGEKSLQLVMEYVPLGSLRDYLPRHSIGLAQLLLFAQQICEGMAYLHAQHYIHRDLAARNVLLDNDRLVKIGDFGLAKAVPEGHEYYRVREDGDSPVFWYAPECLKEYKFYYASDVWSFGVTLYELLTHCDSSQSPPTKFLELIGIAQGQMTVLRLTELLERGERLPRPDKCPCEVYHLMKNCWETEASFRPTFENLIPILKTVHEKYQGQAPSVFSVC
TYK2 JH2 pseudokinase, sequence (P29597 589-875 limits assumed): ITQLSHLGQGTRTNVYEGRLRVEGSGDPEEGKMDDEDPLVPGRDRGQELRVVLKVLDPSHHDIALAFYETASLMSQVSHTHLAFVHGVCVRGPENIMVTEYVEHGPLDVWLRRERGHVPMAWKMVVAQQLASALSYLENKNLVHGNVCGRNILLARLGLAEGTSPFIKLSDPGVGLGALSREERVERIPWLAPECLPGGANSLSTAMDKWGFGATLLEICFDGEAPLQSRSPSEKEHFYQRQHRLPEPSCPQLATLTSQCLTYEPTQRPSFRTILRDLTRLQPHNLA

SMILES | IC50 [1] [nM] | GI50 [2] [nM]
[2H]C([2H])([2H])NC(=O)c1cnc(NC(=O)C2CC2)cc1Nc1cccc(-c2ncc(S(C)(=O)=O)cn2)c1OC [Hydrochloride of WX-001] | 0.27 | 13.7
[2H]C([2H])([2H])NC(=O)c1cnc(NC(=O)C2CC2)cc1Nc1cccc(-c2ncc([S+](C)[O-])cn2)c1OC (stereo not shown) [Hydrochloride of WX-002] | 0.19 | 19.2
CNC(=O)c1cnc(NC(=O)C2CC2)cc1Nc1cccc(-c2ncc(S(=O)(=O)N(C)C)cn2)c1OC [Hydrochloride of WX-017] | – | 4
CNC(=O)c1cnc(NC(=O)C2CC2)cc1Nc1cccc(-c2ncc(S(=O)(=O)N3CCC3)cn2)c1OC [Hydrochloride of WX-018] | 0.13 | 4.2
[2H]C([2H])([2H])NC(=O)c1nnc(NC(=O)C2CC2)cc1Nc1cc(F)cc(-c2ccc(P(C)(C)=O)cc2)c1OC [Hydrochloride of WX-027] | – | 18.3
CNC(=O)c1nnc(NC(=O)C2CC2)cc1Nc1cccc(-c2ncc(S3(=O)=NCCCC3)cn2)c1OC (stereo not shown) [Hydrochloride of WX-029] | – | 3.8
COc1c(Nc2cc(NC(=O)C3CC3)nnc2C(N)=O)cccc1-c1ncc(S(=N)(=O)C(C)C)cn1 (stereo not shown) [Hydrochloride of WX-031] | – | 2.6
COc1c(Nc2cc(NC(=O)C3CC3)nnc2C(N)=O)cccc1-c1ccc(S(=N)(=O)C(C)C)cn1 (stereo not shown) [Hydrochloride of WX-032] | – | 2.9
[2H]C([2H])([2H])NC(=O)c1cnc(NC(=O)C2CC2)cc1Nc1cccc(-c2ncc(S(=N)(=O)C(C)C)cn2)c1OC (stereo not shown) [Trifluoroacetate of WX-009] | – | 12.1
CN=S(=O)(c1ccc(-c2cccc(Nc3cc(NC(=O)C4CC4)nnc3C(=O)NC)c2OC)nc1)C(C)C (stereo not shown) [Trifluoroacetate of WX-014] | – | 10.9
CNC(=O)c1cnc(NC(=O)C2CC2)cc1Nc1cc(F)cc(-c2ccc(S(C)(=O)=O)cc2)c1OC [Trifluoroacetate of WX-026] | – | 18.8
COc1c(Nc2cc(NC(=O)C3CC3)nnc2C(N)=O)cccc1-c1ccc(P(=O)(C2CC2)C2CC2)cn1 [Trifluoroacetate of WX-035] | – | 6.7
[2H]C([2H])([2H])NC(=O)c1cnc(NC(=O)C2CC2)cc1Nc1cccc(-c2ncc(S(C)(=N)=O)cn2)c1OC (stereo not shown) [WX-003] | 0.34 | –
[2H]C([2H])([2H])NC(=O)c1cnc(NC(=O)C2CC2)cc1Nc1cccc(-c2ccc(S(C)(=O)=O)cn2)c1OC [WX-004] | 0.2 | 5.5
[2H]C([2H])([2H])NC(=O)c1cnc(NC(=O)C2CC2)cc1Nc1cccc(-c2ncc(S(=O)(=O)N(C)C)cn2)c1OC [WX-005] | – | 2.2
CN=S(=O)(c1cnc(-c2cccc(Nc3cc(NC(=O)C4CC4)nnc3C(=O)NC)c2OC)nc1)C(C)C (stereo not shown) [WX-013] | – | 12.1
CCP(=O)(CC)c1ccc(-c2cccc(Nc3cc(NC(=O)C4CC4)nnc3C(=O)NC)c2OC)nc1 [WX-022] | – | 13.7
CNC(=O)c1nnc(NC(=O)C2CC2)cc1Nc1cccc(-c2ccc(P(=O)(C(C)C)C(C)C)cc2)c1OC [WX-023] | – | 13.8
CNC(=O)c1nnc(NC(=O)C2CC2)cc1Nc1cccc(-c2ccc(P(=O)(C3CC3)C3CC3)cc2)c1OC [WX-024] | – | 10
CCP(=O)(CC)c1ccc(-c2cccc(Nc3cc(NC(=O)C4CC4)ncc3C(=O)NC)c2OC)cc1 [WX-025] | – | 12.7
CNC(=O)c1nnc(NC(=O)C2CC2)cc1Nc1cccc(-c2ncc(S(=N)(=O)C3CC3)cn2)c1OC (stereo not shown) [WX-028] | – | 4
CNC(=O)c1cnc(NC(=O)C2CC2)cc1Nc1cc(F)cc(-c2ncc(S(=O)(=O)C(C)C)cn2)c1OC [WX-030] | – | 2
CNC(=O)c1cnc(NC(=O)C2CC2)cc1Nc1cccc(-c2ccc(S(=O)(=O)C(C)C)nn2)c1OC [WX-038] | – | 3
CNC(=O)c1cnc(NC(=O)C2CC2)cc1Nc1cccc(-c2ccc(S(=O)(=O)C(C)C)nc2)c1OC [WX-039] | – | 4.7
